Assay results taken from BindingDB's records for doi:10.1021/jm050256l (Umr 8525 Cnrs-Universit&#233, 2005).

Biological target: T1, Glutathione reductase, mitochondrial (Homo sapiens, UniProt P00390)
T1 sequence (P00390 whole entry): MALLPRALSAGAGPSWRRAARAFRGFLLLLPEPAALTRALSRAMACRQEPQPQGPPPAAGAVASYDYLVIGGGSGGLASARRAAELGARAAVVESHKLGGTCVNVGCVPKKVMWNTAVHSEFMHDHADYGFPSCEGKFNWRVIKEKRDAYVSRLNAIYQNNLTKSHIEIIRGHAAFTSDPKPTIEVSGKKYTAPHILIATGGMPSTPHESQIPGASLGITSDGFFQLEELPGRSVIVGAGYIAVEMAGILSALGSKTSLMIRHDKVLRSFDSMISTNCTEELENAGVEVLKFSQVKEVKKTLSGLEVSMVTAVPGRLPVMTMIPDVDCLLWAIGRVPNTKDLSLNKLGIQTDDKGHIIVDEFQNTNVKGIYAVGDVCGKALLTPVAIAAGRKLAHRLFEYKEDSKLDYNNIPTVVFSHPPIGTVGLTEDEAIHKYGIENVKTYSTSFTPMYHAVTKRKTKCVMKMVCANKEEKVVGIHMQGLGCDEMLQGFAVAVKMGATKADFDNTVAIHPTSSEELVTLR
Assay: Inhibitory concentration against human glutathione reductase

- IC50: 1000 nM
Compound: O=C(Cc1ccc2ccc(NC(=O)C[N]3CC[NH][Pt]3([Cl])[Cl])cc2c1)NNC(=O)c1ccc([N+](=O)[O-])o1 [2-(2-Amino-ethylamino)-N-(7-{2-[N'-(5-nitro-furan-2-carbonyl)-hydrazino]-2-oxo-ethyl}-naphthalen-2-yl)-acetamide; compound with GENERIC INORGANIC NEUTRAL COMPONENT]
